Laboratory results taken from PubChem BioAssay AID1845213 (Molecular Pharmacology Branch, DTP, NCI, 2023).

Test system: NCI-H841 complex tumor spheroid viability
Experiment: Anticancer human tumor NCI-H841 cell line growth inhibition;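 note: spheroids exposed to compounds for 7 days before readout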;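 for viability, T/C: 100% = DMSO vehicle control wells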
Settings: for IC50: curve of first compound; for viability, T/C: stronger effect = lower value; active = viability on the fitted dose curve at most 10% of control; inactive = the rest
Method in brief: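 Complex spheroids of malignant cells with endothelial cells and mesenchymal stem cells; agents alone or combined, from near clinical Cmax (or 10 microM if unknown) down in half-log steps, 0.25% DMSO final.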

[1] = second compound 30 pM, first compound 0.0316 µM
[2] = second compound 30 pM, first compound 0.1 µM
[3] = second compound 30 pM, first compound 0.316 µM
[4] = second compound 30 pM, first compound 1 µM
[5] = second compound 30 pM, first compound 3.16 µM
[6] = second compound 30 pM, first compound 10 µM
[7] = second compound 94.9 pM, first compound 0.0316 µM
[8] = second compound 94.9 pM, first compound 0.1 µM
[9] = second compound 94.9 pM, first compound 0.316 µM
[10] = second compound 94.9 pM, first compound 1 µM
[11] = second compound 94.9 pM, first compound 3.16 µM
[12] = second compound 94.9 pM, first compound 10 µM
[13] = second compound 0.0003 µM, first compound 0.0316 µM
[14] = second compound 0.0003 µM, first compound 0.1 µM
[15] = second compound 0.0003 µM, first compound 0.316 µM
[16] = second compound 0.0003 µM, first compound 1 µM
[17] = second compound 0.0003 µM, first compound 3.16 µM
[18] = second compound 0.0003 µM, first compound 10 µM
[19] = second compound 0.000949 µM, first compound 0.0316 µM
[20] = second compound 0.000949 µM, first compound 0.1 µM
[21] = second compound 0.000949 µM, first compound 0.316 µM
[22] = second compound 0.000949 µM, first compound 1 µM
[23] = second compound 0.000949 µM, first compound 3.16 µM
[24] = second compound 0.000949 µM, first compound 10 µM
[25] = second compound 0.003 µM, first compound 0.0316 µM
[26] = second compound 0.003 µM, first compound 0.1 µM
[27] = second compound 0.003 µM, first compound 0.316 µM
[28] = second compound 0.003 µM, first compound 1 µM
[29] = second compound 0.003 µM, first compound 3.16 µM
[30] = second compound 0.003 µM, first compound 10 µM

CC1COCCN1c1cc(-c2ccnn2C)c2ccnc(-c3ccn[nH]3)c2n1 (stereo not given) + COc1cc2c(cc1O)CCNC21CSC2c3c(OC(C)=O)c(C)c4c(c3C(COC1=O)N1C(O)C3Cc5cc(C)c(OC)c(O)c5C(C21)N3C)OCO4
inactive: viability, T/C [1] 26.5%
active: viability, T/C [2] 3.12% | viability, T/C [3] 1.47% | viability, T/C [4] 0.86% | viability, T/C [5] 1.08% | viability, T/C [6] 1.34% | viability, T/C [7] 4.85% | viability, T/C [8] 0.92% | viability, T/C [9] 0.73% | viability, T/C [10] 0.72% | viability, T/C [11] 0.85% | viability, T/C [12] 1.34% | viability, T/C [13] 0.85% | viability, T/C [14] 0.44% | viability, T/C [15] 0.46% | viability, T/C [16] 0.56% | viability, T/C [17] 0.59% | viability, T/C [18] 0.82% | viability, T/C [19] 0.34% | viability, T/C [20] 0.28% | viability, T/C [21] 0.24% | viability, T/C [22] 0.15% | viability, T/C [23] 0.06% | viability, T/C [24] 0.21% | viability, T/C [25] 0.12% | viability, T/C [26] 0.12% | viability, T/C [27] 0.11% | viability, T/C [28] 0.1% | viability, T/C [29] 0.11% | viability, T/C [30] 0.17%
< 31.6 nM: IC50 (second compound 30 pM) | IC50 (second compound 94.9 pM) | IC50 (second compound 0.0003 µM) | IC50 (second compound 0.000949 µM) | IC50 (second compound 0.003 µM)

COc1cc(C)[nH]c(=O)c1CN1CCc2c(Cl)cc(C(OC)C3COC3)c(Cl)c2C1=O (stereo not given) + COc1cc2c(cc1O)CCNC21CSC2c3c(OC(C)=O)c(C)c4c(c3C(COC1=O)N1C(O)C3Cc5cc(C)c(OC)c(O)c5C(C21)N3C)OCO4
inactive: viability, T/C [1] 85.9% | viability, T/C [2] 76.3% | viability, T/C [3] 71.5% | viability, T/C [4] 67.3% | viability, T/C [5] 58.8% | viability, T/C [6] 48.7% | viability, T/C [7] 84.6% | viability, T/C [8] 67.9% | viability, T/C [9] 70.9% | viability, T/C [10] 56.1% | viability, T/C [11] 48.8% | viability, T/C [12] 39.1% | viability, T/C [13] 32.9% | viability, T/C [14] 27.3% | viability, T/C [15] 14.5% | viability, T/C [16] 13.7%
2520 nM: IC50 (second compound 94.9 pM)
active: viability, T/C [17] 10.3% | viability, T/C [18] 5.83% | viability, T/C [19] 3.08% | viability, T/C [20] 2.58% | viability, T/C [21] 2.24% | viability, T/C [22] 1.23% | viability, T/C [23] 1.24% | viability, T/C [24] 0.9% | viability, T/C [25] 0.09% | viability, T/C [26] 0.09% | viability, T/C [27] 0.07% | viability, T/C [28] 0.1% | viability, T/C [29] 0.09% | viability, T/C [30] 0.17%
< 31.6 nM: IC50 (second compound 0.0003 µM) | IC50 (second compound 0.000949 µM) | IC50 (second compound 0.003 µM)
9900 nM: IC50 (second compound 30 pM)

Cc1cc(C)c(CNC(=O)c2cc(-c3ccc(CN4CCOCC4)cc3)cc3c2cnn3C2CCCC2)c(=O)[nH]1 + COc1cc2c(cc1O)CCNC21CSC2c3c(OC(C)=O)c(C)c4c(c3C(COC1=O)N1C(O)C3Cc5cc(C)c(OC)c(O)c5C(C21)N3C)OCO4
< 31.6 nM: IC50 (second compound 0.0003 µM) | IC50 (second compound 0.000949 µM) | IC50 (second compound 0.003 µM)
> 10000 nM: IC50 (second compound 30 pM) | IC50 (second compound 94.9 pM)
active: viability, T/C [18] 7.36% | viability, T/C [19] 2.45% | viability, T/C [20] 2.86% | viability, T/C [21] 3.65% | viability, T/C [22] 2.33% | viability, T/C [23] 2.54% | viability, T/C [24] 1.15% | viability, T/C [25] 0.26% | viability, T/C [26] 0.12% | viability, T/C [27] 0.11% | viability, T/C [28] 0.11% | viability, T/C [29] 0.13% | viability, T/C [30] 0.19%
inactive: viability, T/C [1] 99.7% | viability, T/C [2] 102% | viability, T/C [3] 104% | viability, T/C [4] 95.4% | viability, T/C [5] 87% | viability, T/C [6] 65% | viability, T/C [7] 99.5% | viability, T/C [8] 99.7% | viability, T/C [9] 97% | viability, T/C [10] 89.5% | viability, T/C [11] 84.7% | viability, T/C [12] 57% | viability, T/C [13] 38.6% | viability, T/C [14] 44% | viability, T/C [15] 46.7% | viability, T/C [16] 32.2% | viability, T/C [17] 25.2%

Cc1sc2c(c1C)C(c1ccc(Cl)cc1)=NC(CC(=O)Nc1ccc(O)cc1)c1nnc(C)n1-2 (stereo not given) + COc1cc2c(cc1O)CCNC21CSC2c3c(OC(C)=O)c(C)c4c(c3C(COC1=O)N1C(O)C3Cc5cc(C)c(OC)c(O)c5C(C21)N3C)OCO4
291 nM: IC50 (second compound 94.9 pM)
515 nM: IC50 (second compound 30 pM)
< 9.49 nM: IC50 (second compound 0.0003 µM) | IC50 (second compound 0.000949 µM) | IC50 (second compound 0.003 µM)
active: viability, T/C (second compound 30 pM, first compound 3 µM) 5.97% | viability, T/C (second compound 94.9 pM, first compound 3 µM) 2.65% | viability, T/C (second compound 0.0003 µM, first compound 0.3 µM) 5.26% | viability, T/C (second compound 0.0003 µM, first compound 0.949 µM) 2.59% | viability, T/C (second compound 0.0003 µM, first compound 3 µM) 1.68% | viability, T/C (second compound 0.000949 µM, first compound 0.00949 µM) 2.84% | viability, T/C (second compound 0.000949 µM, first compound 0.03 µM) 2.9% | viability, T/C (second compound 0.000949 µM, first compound 0.0949 µM) 2.06% | viability, T/C (second compound 0.000949 µM, first compound 0.3 µM) 0.99% | viability, T/C (second compound 0.000949 µM, first compound 0.949 µM) 0.03% | viability, T/C (second compound 0.000949 µM, first compound 3 µM) 0.1% | viability, T/C (second compound 0.003 µM, first compound 0.00949 µM) 0.12% | viability, T/C (second compound 0.003 µM, first compound 0.03 µM) 0.12% | viability, T/C (second compound 0.003 µM, first compound 0.0949 µM) 0.12% | viability, T/C (second compound 0.003 µM, first compound 0.3 µM) 0.1% | viability, T/C (second compound 0.003 µM, first compound 0.949 µM) 0.12% | viability, T/C (second compound 0.003 µM, first compound 3 µM) 0.2%
inactive: viability, T/C (second compound 30 pM, first compound 0.00949 µM) 101% | viability, T/C (second compound 30 pM, first compound 0.03 µM) 99.2% | viability, T/C (second compound 30 pM, first compound 0.0949 µM) 93.3% | viability, T/C (second compound 30 pM, first compound 0.3 µM) 69.2% | viability, T/C (second compound 30 pM, first compound 0.949 µM) 28.3% | viability, T/C (second compound 94.9 pM, first compound 0.00949 µM) 99.5% | viability, T/C (second compound 94.9 pM, first compound 0.03 µM) 91.6% | viability, T/C (second compound 94.9 pM, first compound 0.0949 µM) 74.9% | viability, T/C (second compound 94.9 pM, first compound 0.3 µM) 53.9% | viability, T/C (second compound 94.9 pM, first compound 0.949 µM) 14.4% | viability, T/C (second compound 0.0003 µM, first compound 0.00949 µM) 37.6% | viability, T/C (second compound 0.0003 µM, first compound 0.03 µM) 20.6% | viability, T/C (second compound 0.0003 µM, first compound 0.0949 µM) 15.6%

[2H]c1nc(C)nc([2H])c1-c1cc(NC[C@@H](C)c2cccc3c(C(=O)NC)ccnc23)ncn1 + COc1cc2c(cc1O)CCNC21CSC2c3c(OC(C)=O)c(C)c4c(c3C(COC1=O)N1C(O)C3Cc5cc(C)c(OC)c(O)c5C(C21)N3C)OCO4
inactive: viability, T/C [1] 98.7% | viability, T/C [2] 101% | viability, T/C [3] 102% | viability, T/C [4] 99.4% | viability, T/C [5] 97.2% | viability, T/C [6] 96.2% | viability, T/C [7] 101% | viability, T/C [8] 102% | viability, T/C [9] 98% | viability, T/C [10] 96.9% | viability, T/C [11] 96.9% | viability, T/C [12] 93% | viability, T/C [13] 40% | viability, T/C [14] 47.3% | viability, T/C [15] 38.3% | viability, T/C [16] 34.7% | viability, T/C [17] 39.7% | viability, T/C [18] 20.1%
active: viability, T/C [19] 3.9% | viability, T/C [20] 2.99% | viability, T/C [21] 3.31% | viability, T/C [22] 3.19% | viability, T/C [23] 3.35% | viability, T/C [24] 3.46% | viability, T/C [25] 0.12% | viability, T/C [26] 0.1% | viability, T/C [27] 0.1% | viability, T/C [28] 0.1% | viability, T/C [29] 0.12% | viability, T/C [30] 0.17%
> 10000 nM: IC50 (second compound 30 pM) | IC50 (second compound 94.9 pM)
< 31.6 nM: IC50 (second compound 0.0003 µM) | IC50 (second compound 0.000949 µM) | IC50 (second compound 0.003 µM)
